Data taken from US11078207B2, “Substituted pyrrolo[2,3-d]pyrimidines as HER2 inhibitors” (TAIHO PHARMACEUTICAL CO., LTD., priority 2019, dated 2021).
pIC50: −log10 of the molar value. Like-named read-outs stand apart in the source and are kept apart here.

Experiments:
HER2 = biological target: T1, HER2 (Homo sapiens, UniProt P04626); assay: Inhibitory effect (in vitro) on HER2 phosphorylation activity; type: biochemical; settings: recombinant human HER2, ATP 5 μM, 25° C. 30 minutes
T1 construct: purchased Carna Biosciences, Inc
How it was run: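 Purified recombinant human HER2 phosphorylating 5-FAM-labeled ProfilerPro Peptide 22 substrate, compounds serially diluted in DMSO. Reaction stopped with EDTA at 30 mM final; unphosphorylated and phosphorylated peptides separated and detected by microchannel capillary electrophoresis.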

[1] = Body weight change in NCI-N87-Luc direct brain transplantation models; type: in vivo, nude mouse (BALB/cAJcl-nu/nu); settings: oral 25 mg/kg/day, Days 1-21, nude mice
Method: (§1) The test compound was orally administered to the mice once a day, every day, for 21 days from the following day of the grouping (Days 1-21).
(§2) For judgment of the presence or absence of effects, the value (Log 10) obtained by logarithmic transformation of the total flux on the judgment date was used. The test compound was administered to the mice at a dose of 25 mg/kg/day in Example 2 and Example 11, whereas it was administered at a dose of 50 mg/kg/day in Example 12.
(§3) The value obtained by logarithmic transformation (Log 10) of the total flux on Day 22 in each group was analyzed by a Dunnett test or a Student-t test.

[2] = Evaluation of oral absorbability; type: in vivo, BALB/cA mice; settings: mouse; plasma, oral 50 mg/kg/day, BALB/cA mice
[3] = Evaluation of brain penetration properties; type: in vivo, BALB/cA mice; settings: mouse, 0.5 hours after oral 50 mg/kg/day, BALB/cA mice; for Kp at 0.5 h: read-out: Kp value (Compound concentration in brain/plasma)
NCI-N87-Luc = assay: Antitumor effect (in vivo) on direct brain transplantation models of NCI-N87-Luc; design: species or system nude mouse (BALB/cAJcl-nu/nu); settings: Days 1-21
Description: In order to confirm the antitumor effects of a test compound on direct brain transplantation models, NCI-N87-Luc, which was obtained by introducing a luciferase gene into NCI-N87 that was a human stomach cancer tumor cell line purchased from American Type Culture Collection, was used.
The NCI-N87-Luc cells were re-suspended in PBS in a concentration of 6.25×10^7 cells/mL.
Using a mouse ear bar, a nude mouse with 6 to 7 weeks old (BALB/cAJcl-nu/nu, CLEA Japan, Inc.) was fixed in a brain stereotaxic apparatus, and the skin on the upper brain portion was disinfected with alcohol cotton and was then excised with a surgical knife.
A microdrill was used to drill a hole in the skull, and then, using a needle, a manipulator, and a syringe pump, 4 μL of the cell suspension was transplanted into the brain at a rate of 0.8 μL/min.
As a reference of the amount of brain tumor, approximately 3 weeks after the transplantation, Total Flux (Photon/sec) was measured in all of the survival cases, using IVIS (PerkinElmer, Inc., model: Lumina II). Based on the obtained results, 6 animals were assigned to each group, using the grouping program of MiSTAT (Ver. 2.00).
as §1, §2
A graph was prepared with the value obtained by logarithmic transformation (Log 10) of the average total flux of each group as a vertical axis, and with the number of days (Day) after the transplantation as a horizontal axis. The transition of the total flux over time in the drug administration period was observed. […]
as §3

[4] = brain, read-out: Compound concentration in brain
[5] = plasma, read-out: Compound concentration in plasma

T1 sequence (P04626 23-1255): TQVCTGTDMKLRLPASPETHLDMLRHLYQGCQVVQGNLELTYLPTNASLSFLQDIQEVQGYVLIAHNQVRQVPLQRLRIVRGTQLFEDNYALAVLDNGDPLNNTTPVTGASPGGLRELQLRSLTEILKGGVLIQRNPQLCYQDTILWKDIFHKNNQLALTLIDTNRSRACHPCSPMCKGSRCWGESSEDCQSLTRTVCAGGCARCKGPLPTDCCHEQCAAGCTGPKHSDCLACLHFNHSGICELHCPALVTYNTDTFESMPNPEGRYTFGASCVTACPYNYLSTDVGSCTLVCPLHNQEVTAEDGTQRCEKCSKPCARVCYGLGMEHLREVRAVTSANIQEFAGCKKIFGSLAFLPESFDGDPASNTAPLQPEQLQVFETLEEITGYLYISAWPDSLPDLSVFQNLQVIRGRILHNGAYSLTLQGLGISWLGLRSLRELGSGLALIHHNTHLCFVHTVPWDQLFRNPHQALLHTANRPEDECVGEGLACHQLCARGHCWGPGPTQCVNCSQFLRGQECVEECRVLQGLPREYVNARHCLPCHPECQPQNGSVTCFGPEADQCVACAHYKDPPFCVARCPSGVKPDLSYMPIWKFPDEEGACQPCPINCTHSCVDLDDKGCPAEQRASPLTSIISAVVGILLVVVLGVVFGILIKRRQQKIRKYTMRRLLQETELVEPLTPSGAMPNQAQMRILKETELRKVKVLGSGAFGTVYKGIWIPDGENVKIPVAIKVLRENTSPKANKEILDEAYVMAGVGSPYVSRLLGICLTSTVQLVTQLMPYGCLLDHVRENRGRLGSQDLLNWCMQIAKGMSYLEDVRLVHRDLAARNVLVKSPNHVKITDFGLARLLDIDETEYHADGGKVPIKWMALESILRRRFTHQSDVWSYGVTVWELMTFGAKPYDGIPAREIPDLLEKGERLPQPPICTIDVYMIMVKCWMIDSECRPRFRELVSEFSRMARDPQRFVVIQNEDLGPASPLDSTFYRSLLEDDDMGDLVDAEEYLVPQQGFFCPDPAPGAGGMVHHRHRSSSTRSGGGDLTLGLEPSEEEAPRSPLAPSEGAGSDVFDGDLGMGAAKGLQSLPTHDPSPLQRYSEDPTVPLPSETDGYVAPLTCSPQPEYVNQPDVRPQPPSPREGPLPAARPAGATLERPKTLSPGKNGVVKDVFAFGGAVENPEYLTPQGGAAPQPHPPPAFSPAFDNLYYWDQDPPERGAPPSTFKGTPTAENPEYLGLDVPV

pIC50 (HER2) | AUC(0-t) [2] | concentration at 0.5 h [3, 4] | Kp at 0.5 h ([3]; brain) | concentration at 0.5 h [3, 5] | SMILES | body weight reduction of −20% or more [1] | Log 10 of total flux on Day 22 versus control group (NCI-N87-Luc; oral 25 mg/kg/day once a day) | Log 10 of total flux on Day 22 versus control group (NCI-N87-Luc; oral 50 mg/kg/day once a day)
8.60 | 15 µM·h | 1.8 µM | 0.27 | 6.6 µM | C=CC(=O)N1C[C@H](n2c(C#CC)c(C(=O)N[C@H](C)c3ccccc3)c3c(N)ncnc32)C[C@@H]1C [Example 2, 7-((3R,5S)-1-acryloyl-5-methylpyrrolidin-3-yl)-4-amino-N—((R)-1-phenylethyl)-6-(prop-1-yn-1-yl)-7H-pyrrolo[2,3-d]pyrimidine-5-carboxamide] | not observed | statistically significantly lower | 
8.49 | 31 µM·h | 2.7 µM | 0.23 | 12 µM | C=CC(=O)N1C[C@H](n2c(C#CC3CC3)c(C(=O)N[C@H](C)c3ccccc3)c3c(N)ncnc32)C[C@@H]1C [Example 11, 7-((3R,5S)-1-acryloyl-5-methylpyrrolidin-3-yl)-4-amino-6-(cyclopropylethynyl)-N—((R)-1-phenylethyl)-7H-pyrrolo[2,3-d]pyrimidine-5-carboxamide] | not observed | statistically significantly lower | 
8.47 | 36 µM·h | 3.2 µM | 0.29 | 11 µM | C=CC(=O)N1C[C@H](n2c(C#CC(C)(C)C)c(C(=O)N[C@H](C)c3ccccc3)c3c(N)ncnc32)C[C@@H]1C [Example 12, 7-((3R,5S)-1-acryloyl-5-methylpyrrolidin-3-yl)-4-amino-6-(3,3-dimethylbut-1-yn-1-yl)-N—((R)-1-phenylethyl)-7H-pyrrolo[2,3-d]pyrimidine-5-carboxamide] |  |  | statistically significantly lower
